# According to ChEMBL document CHEMBL1150827, “Pseudodestruxins A and B: new cyclic depsipeptides from the coprophilous fungus Nigrosabulum globosum” (2001):
# Activity calls are given as the source filed them. The calls are words filed in the database; no cut-off is given here. Non-standard residues stand in square brackets, D forms with d. Residues, ends and D or L forms follow the SMILES beside them. NMeI = CC[C@H](C)[C@H](NC)C(=O)O; Hica(2S) = CC(C)C[C@H](O)C(=O)O; NMeL = CN[C@@H](CC(C)C)C(=O)O; NMeV = CN[C@H](C(=O)O)C(C)C; βAla = NCCC(=O)O
# How the values were obtained:
# Bacillus subtilis = test: Antibacterial activity against Bacillus subtilis ATCC 6051 at 200 ug/disk by standard disk assay; type: functional; conditions: read-out: IZ
# Staphylococcus aureus = test: Antibacterial activity against Staphylococcus aureus ATCC 29213 at 200 ug/disk by standard disk assay; type: functional; conditions: read-out: IZ
# Ascobolus [1] = test: Antifungal activity against Ascobolus furfuraceus NRRL 6460 assessed as inhibition of radial growth at 200 ug/disk by standard disk assay; type: functional
# Candida albicans = test: Antifungal activity against Candida albicans ATCC 90029 at 200 ug/disk by standard disk assay; type: functional; conditions: read-out: IZ
# Sordaria fimicola [2] = test: Antifungal activity against Sordaria fimicola NRRL 6459 assessed as inhibition of radial growth at 200 ug/disk by standard disk assay; type: functional
# Sordaria fimicola [3] = test: Antifungal activity against Sordaria fimicola NRRL 6459 at 200 ug/disk by standard disk assay; type: functional, organism-based
# Helicoverpa zea = test: Antiinsectan activity against Helicoverpa zea larvae at 100 ppm dietary level by dietary assay; type: functional, organism-based
# Ascobolus [4] = test: Antifungal activity against Ascobolus furfuraceus NRRL 6460 at 200 ug/disk by standard disk assay; type: functional, organism-based
smiles,measurement,setting,value
CC(/C=C/[C@@]1(C)[C@H](C)CCC(=O)[C@@H]1C)=C\Cc1c(O)c(Cl)c(C)c(C=O)c1O [ASCOCHLORIN],zone of inhibition at 200 µg/disc,Bacillus subtilis,12 mm
same,zone of inhibition at 200 µg/disc,Staphylococcus aureus,11 mm
same,inhibition at 200 µg/disc,Ascobolus [1],33%
same,zone of inhibition at 200 µg/disc,Candida albicans,24 mm
same,inhibition at 200 µg/disc,Sordaria fimicola [2],62%
CC[C@H](C)[C@H]1C(=O)N(C)[C@@H](CC(C)C)C(=O)NCCC(=O)O[C@@H](CC(C)C)C(=O)N2CCC[C@H]2C(=O)N[C@@H](Cc2ccccc2)C(=O)N1C [PSEUDODESTRUXIN A] (cyclo(F[NMeI][NMeL][βAla][Hica(2S)]P)),zone of inhibition at 200 µg/disc,Bacillus subtilis,8 mm
same,inhibition zone (IZ),Sordaria fimicola [3],inactive
same,Activity,Helicoverpa zea,inactive
same,inhibition zone (IZ),Ascobolus [4],inactive
CC(C)C[C@@H]1OC(=O)CCNC(=O)[C@H](CC(C)C)N(C)C(=O)[C@H](C(C)C)N(C)C(=O)[C@H](Cc2ccccc2)NC(=O)[C@@H]2CCCN2C1=O [PSEUDODESTRUXIN B] (cyclo(F[NMeV][NMeL][βAla][Hica(2S)]P)),zone of inhibition at 200 µg/disc,Bacillus subtilis,8 mm
same,inhibition zone (IZ),Sordaria fimicola [3],inactive
same,inhibition zone (IZ),Ascobolus [4],inactive
